Two molecules from patent US5095007A, “Alteration of rate and character of hair growth” (priority 1990, dated 1992) can be followed below.

One assay concerns hamster flank organ. The assay can be described thus: Reduction of hair growth (hair mass) on hamster flank organ after topical application. Type of assay: in vivo, Golden Syrian hamster. Conditions: for Percent Inhibition of Hair Growth: vs vehicle-treated organ. From the text: L-alanosine was mixed with separate portions of the foregoing vehicle to provide specimens containing 0.1, 0.5, 1, 2, and 6% by weight respectively of the inhibitor and the pH was adjusted to pH 7.5 with sodium hydroxide.
Four groups (eight animals in each group) of male intact Golden Syrian hamsters were provided. These animals were considered acceptable models for human beard hair growth in that they display oval shaped flank organs, one on each side, each about 8 mm. in major diameter, which grow thick black and coarse hair similar to human beard hair. These organs produce hair in response to androgens in the hamster. The flank organs of each hamster were depilated by applying a thioglycolat-- based chemical depilatory (Surgex), and to one organ of each animal was applied 10-25 μl. of vehicle alone once a day, while to the other organ of each animal was applied an equal amount of vehicle containing inhibitor. After three weeks of such applications (five days a week), the flank organs were shaved and the amount of recovered hair (hair mass) from each was weighed. The extent of reduction in hair growth by the inhibitor was expressed as the percent decrease in hair mass on the organ treated with inhibitor as compared to the organ treated with vehicle alone. As a control, one group of eight animals had both flank organs of each animal treated with vehicle alone.
A series of compositions was prepared containing various percentages by weight of N-phosphonacetyl-L-aspartic acid (PALA) in the vehicle described in Example 1 above adjusted to pH 4.5, and applied to hamster flank organs under the same conditions as described in Example 1. The reduction in hair growth observed after three weeks was as follows: […]

In assay [1] the test system is aspartate transcarbamylase. The assay is described as follows: Aspartate transcarbamylase activity in hamster hair follicles after topical treatment. Type of assay: in vivo. Conditions: 10% solution, two treatments over a 24 hour period.
Assay [2] relates to pyrimidine nucleotide content of hair follicles. The assay can be described thus: Pyrimidine nucleotide content of hair follicles after topical treatment. Type of assay: in vivo, hamster. Conditions: same treatment protocol as nucleotide content in Example 1 (10%, three days daily).
Assay [3] concerns adenylosuccinate synthetase. The assay is described as follows: Adenylosuccinate synthetase activity in hamster hair follicles after topical treatment. The note with it: 10% solution, twice over a 24 hour period. Type of assay: in vivo.
In assay [4] the test system is adenosine nucleotide contents of hair follicles. The assay is described as follows: Adenosine nucleotide contents of flank organ hair follicles after topical treatment. The format is in vivo, hamster. The note with it: 10% in vehicle, three days of daily treatments. The procedure:
The effect of the enzyme inhibition, was further shown by measurements of hair follicle nucleotide levels after topical treatment with L-alanosine. A group of eight hamsters was treated topically with L-alanosine (10% in the vehicle above) on one flank organ while the other organ received an equal amount of just the vehicle. After three days of daily treatments, the hair follicles from the flank organs were removed and the adenosine nucleotide contents were determined.

[5] abbreviates: PALA 2%, 10 μl, pH 4.5, three weeks.
Setting [6] is: PALA 2%, 25 μl, pH 4.5, three weeks.
[7] abbreviates: PALA 4%, 25 μl, pH 4.5, three weeks.
Setting [8] is: PALA 6%, 10 μl, pH 4.5, three weeks.
Setting [9] is: PALA 6%, 25 μl, pH 4.5, three weeks.
The mark [10] stands for this setting: L-alanosine 0.5%, 25 μl, pH 7.5, three weeks.
Where [11] appears, read: L-alanosine 1.0%, 25 μl, pH 7.5, three weeks.
The mark [12] stands for this setting: L-alanosine 2.0%, 25 μl, pH 7.5, three weeks.
[13] abbreviates: L-alanosine 6.0%, 25 μl, pH 7.5, three weeks.

Turning to `O=C(O)C[C@H](NC(=O)CP(=O)(O)O)C(=O)O` [PALA, N-phosphonacetyl-L-aspartic acid], in the assay on hamster flank organ (setting [5]), the “Hamster Flank Organ Hair Mass, Treated Mean” value (“Hamster Flank Organ Hair Mass” for short) was 1.36 mg and the “Percent Inhibition of Hair Growth” value was 13%. For the same molecule, in the assay on hamster flank organ (setting [6]), the “Hamster Flank Organ Hair Mass” value is recorded as 1.34 mg and the “Percent Inhibition of Hair Growth” value worked out at 19%. In addition, in the assay on hamster flank organ (setting [7]), the “Hamster Flank Organ Hair Mass” value is on record as 0.85 mg and the “Percent Inhibition of Hair Growth” value was determined as 50%. In the assay with hamster flank organ (setting [8]), the “Hamster Flank Organ Hair Mass” value was 0.37 mg and the “Percent Inhibition of Hair Growth” value is 78%. For the same molecule, in the assay with hamster flank organ (setting [9]), the “Hamster Flank Organ Hair Mass” value is on record as 0.23 mg and the “Percent Inhibition of Hair Growth” value came to 87%. Besides, the “reduction of aspartate transcarbamylase activity” value in assay [1] was determined as 72%. Also, in assay [2], the “inhibition of CDP (hair follicle content)” value worked out at 19%, the “inhibition of CTP (hair follicle content)” value is 60%, the “inhibition of UDP (hair follicle content)” value was found to be 25% and the “inhibition of UTP (hair follicle content)” value was 50%.
In the case of `N[C@@H](CN(O)N=O)C(=O)O` [L-alanosine, L-2-amino-3-(N-hydroxy, N-nitrosamino) propionic acid], the “inhibition of adenylosuccinate synthetase activity” value in assay [3] is “about 49%”. Also, the “Hamster Flank Organ Hair Mass” value in the assay with hamster flank organ (L-alanosine 0.1%, 25 μl, pH 7.5, once a day, five days a week, three weeks) is 0.68 mg; with hamster flank organ (setting [10]), 0.67 mg; with hamster flank organ (setting [11]), 0.38 mg; in the assay with hamster flank organ (setting [12]), 0.51 mg; with hamster flank organ (setting [13]), 0.07 mg. Besides, the “Percent Inhibition of Hair Growth” value with hamster flank organ (L-alanosine 0.1%, 25 μl, pH 7.5, three weeks) is 18%; in the assay with hamster flank organ (setting [10]), 32%; in the assay with hamster flank organ (setting [11]) it was 47%; in the assay on hamster flank organ (setting [12]), 61%; with hamster flank organ (setting [13]) it was 92%. In the assay on hamster flank organ (treated vs untreated organ, Table 1 footnote), the “Nature of the hair on the treated organ” value is “more vellous”. Further, the “reduction in ADP levels in hair follicles” value in assay [4] is recorded as 40%. Besides, in assay [4], the “reduction in AMP levels in hair follicles” value amounted to 50%. Moreover, the “reduction in ATP levels in hair follicles” value in assay [4] was 29%.
